From doi:10.1101/2021.10.01.462758v2 (biorxiv, 2021)
Read-outs that look alike come from different tables or passages of the source.

Experiments:
[1] = target: T1, D1R; D1 receptor fused to C-terminal RLuc (BRET assay) (Homo sapiens, UniProt P21728); test: cell-based; parameters: species or system HEK293T; conditions: HEK-293T, read-out: β-arrestin Emax (%), D1R
[2] = target: T2, D2R; D2Long receptor fused to C-terminal RLuc (BRET assay) (Homo sapiens, UniProt P14416); test: cell-based; parameters: species or system HEK293T; conditions: for Emax: HEK-293T, read-out: β-arrestin Emax (%), D2R
T2 sequence (P14416 whole entry, the tested form may be a part): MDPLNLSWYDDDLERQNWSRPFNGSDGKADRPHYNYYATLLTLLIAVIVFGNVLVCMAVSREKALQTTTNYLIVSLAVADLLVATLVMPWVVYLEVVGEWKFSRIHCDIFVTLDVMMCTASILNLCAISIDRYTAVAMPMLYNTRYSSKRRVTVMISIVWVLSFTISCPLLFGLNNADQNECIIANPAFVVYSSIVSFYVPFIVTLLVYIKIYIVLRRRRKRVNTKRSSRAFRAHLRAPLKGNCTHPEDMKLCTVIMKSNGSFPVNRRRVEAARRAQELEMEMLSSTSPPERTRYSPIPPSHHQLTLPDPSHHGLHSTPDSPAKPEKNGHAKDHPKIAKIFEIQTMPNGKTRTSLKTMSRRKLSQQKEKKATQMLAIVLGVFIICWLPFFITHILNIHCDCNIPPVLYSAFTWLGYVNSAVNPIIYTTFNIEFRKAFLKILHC

[3] = target: T2, D2R; D2Long receptor fused to C-terminal RLuc (BRET assay); test: BRET beta-arrestin2 recruitment, HEK293T; format: cell-based
[4] = target: T1, D1R; D1 receptor fused to C-terminal RLuc (BRET assay); test: BRET beta-arrestin2 recruitment, HEK293T; format: cell-based
[5] = target: T1, D1R; D1 receptor fused to C-terminal RLuc (BRET assay); test: cell-based; parameters: species or system HEK293T; conditions: HEK-293T, read-out: β-arrestin Emax (%), D1R; remark: listed apart in the source
[6] = target: T2, D2R; D2Long receptor fused to C-terminal RLuc (BRET assay); test: cell-based; parameters: species or system HEK293T; conditions: HEK-293T, read-out: β-arrestin Emax (%), D2R
[7] = target: T2, D2R; D2Long receptor fused to C-terminal RLuc (BRET assay); test: cell-based; parameters: species or system HEK293T
[8] = target: T2, D2R; D2Long receptor fused to C-terminal RLuc (BRET assay); test: cell-based; parameters: species or system HEK293T; remark: listed apart in the source
[9] = target: T1, D1R; D1 receptor fused to C-terminal RLuc (BRET assay); test: cell-based; parameters: species or system HEK293T; conditions: HEK-293T, read-out: β-arrestin Emax (%), D1R; remark: listed apart in the source
[10] = target: T2, D2R; D2Long receptor fused to C-terminal RLuc (BRET assay); test: cell-based; parameters: species or system HEK293T; conditions: HEK-293T, read-out: β-arrestin Emax (%), D2R; remark: listed apart in the source
[11] = target: T2, D2R; D2Long receptor fused to C-terminal RLuc (BRET assay); test: cell-based; parameters: species or system HEK293T; remark: listed apart in the source
[12] = target: T2, D2R; D2Long receptor fused to C-terminal RLuc (BRET assay); conditions: agonist
[13] = target: T1, D1R; D1 receptor fused to C-terminal RLuc (BRET assay); test: cell-based; parameters: species or system HEK293T; conditions: HEK-293T, read-out: β-arrestin Emax (%), D1R; remark: listed apart in the source

T1 sequence (P21728 whole entry, the tested form may be a part): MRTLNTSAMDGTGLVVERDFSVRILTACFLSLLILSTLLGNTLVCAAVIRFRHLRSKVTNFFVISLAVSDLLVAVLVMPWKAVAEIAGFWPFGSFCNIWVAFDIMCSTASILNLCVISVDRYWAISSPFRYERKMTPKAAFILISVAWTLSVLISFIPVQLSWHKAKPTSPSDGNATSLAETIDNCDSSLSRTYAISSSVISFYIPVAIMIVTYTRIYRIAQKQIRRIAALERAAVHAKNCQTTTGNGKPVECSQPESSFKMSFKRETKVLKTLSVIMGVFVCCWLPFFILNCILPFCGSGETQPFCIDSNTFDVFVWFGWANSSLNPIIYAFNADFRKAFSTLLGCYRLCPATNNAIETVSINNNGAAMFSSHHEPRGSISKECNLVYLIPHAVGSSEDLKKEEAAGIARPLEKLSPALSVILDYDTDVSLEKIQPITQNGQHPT

EC50 [4]	SMILES	Emax [2]	EC50 [3]	further results
–	Oc1cc2c(cc1O)[C@H]1c3cc(Br)sc3CN[C@@H]1CC2 (racemic) [1b]	60.3 ± 2.27%	–	Emax [1]: 138 ± 8.41%
–	Oc1cc2c(cc1O)[C@H](c1cccs1)[C@@H](NCc1ccccc1)CC2 (racemic) [1l]	8.62 ± 3.15%	–	–
–	N[C@H]1CCc2cc(O)c(O)cc2[C@@H]1c1cccs1 (racemic) [1m]	27 ± 1.8%	–	Emax [1]: 3.7 ± 1.67%
–	Oc1cc2c(cc1O)[C@H]1c3cc(Br)sc3CN[C@@H]1CC2 [1c]	70.3 ± 3.41%	–	Emax [1]: 137 ± 9.35%
> 10 µM	Oc1cc2c(cc1O)[C@H]1c3cc(-c4cccc(C(F)(F)F)c4)sc3CN[C@@H]1CC2 [1h]	73 ± 4.69%	4.84 µM	–
> 10 µM	Oc1cc2c(cc1O)[C@@H]1c3cc(-c4cccc(C(F)(F)F)c4)sc3CN[C@H]1CC2 [1i]	–	> 10 µM	–
6.9 µM	Cc1cc(-c2cccc(O)c2O)cs1 [2a]	–	–	Emax [5]: 30.3 ± 5.6%; Emax [6]: 13.9 ± 3.68%
0.0052 µM	Oc1cccc(-c2cccc(C(F)(F)F)c2)c1O [2b]	–	–	Emax [5]: 6.13 ± 3.11%; EC50 [7]: > 10 µM
> 10 µM	N#Cc1ccc(-c2cccc(O)c2O)cc1 [2c]	–	–	EC50 [7]: 0.0317 µM; Emax [6]: 1.61 ± 1.27%
0.053 µM	Oc1cccc(-c2cccnc2)c1O [2d]	–	–	Emax [5]: 2.6 ± 1.8%; EC50 [8]: > 100 µM
> 10 µM	N#Cc1cccc(-c2cccc(O)c2O)c1 [2e]	–	–	EC50 [8]: > 100 µM
0.0514 µM	NS(=O)(=O)c1ccc(-c2cccc(O)c2O)cc1 [2f]	–	–	Emax [5]: 4.6 ± 1.5%; EC50 [8]: > 100 µM
0.00733 µM	Nc1cccc(-c2cccc(O)c2O)c1 [2g]	–	–	Emax [5]: 4 ± 1.6%; EC50 [8]: > 100 µM
0.689 µM	Oc1cccc(-c2cncc3ccccc23)c1O [2h]	–	–	Emax [5]: 8.1 ± 2.1%; EC50 [8]: > 100 µM
> 10 µM	Oc1cccc(-c2cnc3ccccc3c2)c1O [2i]	–	–	EC50 [8]: > 100 µM
0.229 µM	OCCc1ccc(O)c(O)c1 [3a]	–	5.26 µM	Emax [9]: 11.5 ± 3.05%; Emax [10]: 9.98 ± 2.96%
0.534 µM	OCCCc1ccc(O)c(O)c1 [3b]	–	–	Emax [9]: 3.5 ± 1.9%; EC50 [11]: > 10 µM
–	NCCc1ccc(O)c(O)c1 [DA]	–	–	β-arrestin Emax (%), D2R ([2]; beta-arrestin2 recruitment, % of dopamine, agonist): 90.29±3.23%; D2R beta-arrestin Emax (%) [12]: 90.29±3.23%
–	COc1cccc(-c2ccc(O)c(O)c2)c1 [Z4642446630]	–	–	EC50 ([4]; agonist mode, beta-arrestin2 pathway, pH […]): 5.48 µM; Emax [13]: 17.1 ± 5.3%

SMILES	EC50 [4]	Emax [2]	EC50 [3]	further results
CN1Cc2sccc2[C@@H]2c3cc(O)c(O)cc3CC[C@H]21 (relative stereo) [1j]	> 10 µM	73.4 ± 17.8%	7.48 µM	–
Oc1cc2c(cc1O)[C@@H]1c3cc(Br)sc3CN[C@H]1CC2 [1d]	2.63 µM	50.6 ± 4.02%	5.62 µM	Emax [1]: 52.8 ± 9.7%
CCCc1cc2c(s1)CN[C@H]1CCc3cc(O)c(O)cc3[C@H]21 [(+)-A-86929]	2.8 µM	38 ± 4.45%	2.07 µM	Emax [1]: 94.1 ± 6.55%
CCCc1cc2c(s1)CN[C@@H]1CCc3cc(O)c(O)cc3[C@@H]21 [(-)-A-86929]	0.607 µM	79.7 ± 3.83%	0.27 µM	Emax [1]: 95.5 ± 6.88%
CCCc1cc2c(s1)CN[C@@H]1CCc3cc(OC(C)=O)c(OC(C)=O)cc3[C@@H]21 [ABT-431]	3.2 µM	23 ± 2.15%	3 µM	Emax [1]: 88.2 ± 3.06%
